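Protocol summary: plate cells (96-well), add compound at 5 concentrations, incubate 48 h, interpolate endpoints linearly. The concentration for 50% growth inhibition is given as GI50.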 The source made the active and inactive calls. Cut-off read from the data, not from the text of the source: active = GI50 up to about 1.1 µM and inactive = higher.
What was measured:
Test in all cases: inhibition of tumour cell growth, NCI panel, 48 h
[1] = test system: LOX IMVI
[2] = test system: 786-0
[3] = test system: CCRF-CEM
[4] = test system: K562
[5] = test system: EKVX
[6] = test system: MOLT-4
[7] = test system: COLO 205
[8] = test system: UO-31
[9] = test system: MDA-MB-231
[10] = test system: KM12
[11] = test system: RPMI-8226
[12] = test system: ACHN
[13] = test system: SK-OV-3
[14] = test system: HL-60
[15] = test system: CAKI-1
[16] = test system: SK-MEL-2
[17] = test system: SK-MEL-5
[18] = test system: MDA-MB-435
[19] = test system: Malme-3M
[20] = test system: T47D
[21] = test system: TK-10
[22] = test system: PC-3
[23] = test system: HOP-92
[24] = test system: SK-MEL-28
[25] = test system: DU-145
[26] = test system: NCI-H226
[27] = test system: UACC-257
[28] = test system: SN12C
[29] = test system: A498
[30] = test system: HCC 2998
[31] = test system: HCT-116
[32] = test system: NCI-H522
[33] = test system: HOP-62
[34] = test system: RXF 393
[35] = test system: OVCAR-4
[36] = test system: NCI/ADR-RES
[37] = test system: SR
[38] = test system: IGROV-1
[39] = test system: HCT-15
[40] = test system: SW-620
[41] = test system: MDA-N
[42] = test system: SF-295
[43] = test system: A549
[44] = test system: OVCAR-5
[45] = test system: U-251
[46] = test system: HT-29
[47] = test system: SF-268
[48] = test system: SNB-75
[49] = test system: SF-539
[50] = test system: UACC-62
[51] = test system: NCI-H23
[52] = test system: Hs-578T
[53] = test system: SNB-19
[54] = test system: OVCAR-8
[55] = test system: NCI-H460
[56] = test system: M14
[57] = test system: OVCAR-3
[58] = test system: MCF7

Measured: GI50

O=C1C(=O)N(c2cccc(C(F)(F)F)c2)C(=S)N1c1ccccc1
19.1 µM: [39]
inactive: [1] 1.91 µM | [2] 33.3 µM | [3] 35.9 µM | [4] 34.5 µM | [5] 30.9 µM | [6] 38 µM | [7] 16.4 µM | [8] 25.2 µM | [9] 24.4 µM | [10] 31.4 µM | [11] 36.2 µM | [12] 16.4 µM | [13] 19.3 µM | [14] 32.7 µM | [15] 29.2 µM | [16] 19.1 µM | [17] 17.9 µM | [18] 27.4 µM | [19] 31.8 µM | [20] 25.4 µM | [21] 2.84 µM | [22] 30.8 µM | [23] 19.1 µM | [24] 28 µM | [25] 22.2 µM | [26] 24.5 µM | [27] 25.8 µM | [28] 34.4 µM | [29] 21.9 µM | [30] 42 µM | [31] 31.7 µM | [32] 6.44 µM | [33] 34.2 µM | [34] 27.7 µM | [35] 41.1 µM | [36] 31.8 µM | [37] 37.2 µM | [38] 22.4 µM | [40] 36.2 µM | [41] 25.5 µM | [42] 31.5 µM | [43] 33.3 µM | [44] 30 µM | [45] 31.6 µM | [46] 36.5 µM | [47] 43.9 µM | [48] 34.5 µM | [49] 26.1 µM | [50] 14.9 µM | [51] 25.5 µM | [52] 27.9 µM | [53] 40.5 µM | [54] 33.7 µM | [55] 2.32 µM

CCOC1=NC(C(F)(F)F)(C(F)(F)F)N=C(N2CCCCC2)O1
> 100 µM: [39]
inactive: [56] > 100 µM | [1] > 100 µM | [2] > 100 µM | [3] > 100 µM | [4] > 100 µM | [5] > 100 µM | [6] > 100 µM | [7] > 100 µM | [57] > 100 µM | [8] > 100 µM | [9] > 100 µM | [10] > 100 µM | [11] > 100 µM | [12] > 100 µM | [14] 29.3 µM | [15] > 100 µM | [16] > 100 µM | [17] > 100 µM | [18] > 100 µM | [19] > 100 µM | [20] > 100 µM | [21] > 100 µM | [22] > 100 µM | [23] > 100 µM | [24] > 100 µM | [25] > 100 µM | [26] > 100 µM | [27] > 100 µM | [28] > 100 µM | [29] > 100 µM | [31] > 100 µM | [32] > 100 µM | [33] > 100 µM | [34] > 100 µM | [35] > 100 µM | [36] > 100 µM | [37] 59 µM | [38] > 100 µM | [40] > 100 µM | [42] > 100 µM | [43] > 100 µM | [44] > 100 µM | [45] > 100 µM | [46] > 100 µM | [47] > 100 µM | [48] > 100 µM | [49] > 100 µM | [50] > 100 µM | [58] > 100 µM | [51] > 100 µM | [52] > 100 µM | [53] > 100 µM | [54] > 100 µM | [55] > 100 µM

CC1(C)OP(=O)(c2ccccc2)C=C1Sc1ccc([N+](=O)[O-])cc1[N+](=O)[O-] (stereo unspecified)
inactive: [56] 63.8 µM | [1] 36.6 µM | [2] 38.6 µM | [4] 27 µM | [5] > 100 µM | [7] > 100 µM | [57] 30.4 µM | [10] 98.2 µM | [12] > 100 µM | [13] > 100 µM | [14] 15.9 µM | [15] > 100 µM | [16] > 100 µM | [17] 42.7 µM | [18] 70 µM | [19] 78.3 µM | [20] > 100 µM | [21] > 100 µM | [22] 65.3 µM | [23] 91.4 µM | [24] 85.1 µM | [25] 74.6 µM | [26] > 100 µM | [27] > 100 µM | [28] 45.9 µM | [29] > 100 µM | [31] 36.6 µM | [32] 19 µM | [33] > 100 µM | [35] 29.7 µM | [36] 80.5 µM | [37] 17.3 µM | [38] > 100 µM | [40] 65.5 µM | [41] 71.8 µM | [42] 95.9 µM | [43] > 100 µM | [44] > 100 µM | [45] 54.7 µM | [46] 45.6 µM | [47] 52.1 µM | [48] > 100 µM | [49] 33.7 µM | [50] 35 µM | [58] 41.5 µM | [51] 77.6 µM | [52] > 100 µM | [53] > 100 µM | [54] 62.1 µM | [55] > 100 µM
65.5 µM: [39]
